The source made the active and inactive calls. The rule behind the calls is not given here.

For assay [1], the target named is T1, Transient receptor potential cation channel subfamily M member 8 (Rattus norvegicus, UniProt Q8R455). The assay is described as follows: Antagonist activity at rat TRPM8 channel transfected in HEK293 cells assessed as inhibition of calcium currents by Fluo-4 NW dye based fluorimetric assay. Format: cell-based.
For assay [2], the target named is T1, Transient receptor potential cation channel subfamily M member 8. The assay is described as follows: Antagonist activity at rat TRPM8 channel transfected in HEK293 cells assessed as inhibition of menthol-induced calcium currents at -60 mV measured for 90 secs by whole cell patch clamp method. Format: cell-based. (Patch clamp records ionic current or voltage across a cell membrane.)

Assay [3] has as its target Transient receptor potential cation channel subfamily M member 8 (Rattus norvegicus) (UniProt Q8R455). The assay is described as follows: Inhibition of rat TRPM8 channel transfected in HEK293 cells assessed as inhibition of menthol-induced calcium currents at 0.01 to 10 uM at -60 mV measured for 90 secs by whole cell patch clamp method. Format: cell-based. The conditions noted are these: dose 0.01-10 µM, time 90.0 sec, DDE = dose-dependent effect.

Assay [4] relates to CWR22R. The assay is described as follows: Inhibition of R1881-induced DNA synthesis in human 22Rv1 cells at 1 to 10 uM incubated for 18 hrs by BrdU incorporation assay. The conditions noted are these: dose 1-10 µM. The format is functional, cell-based. (In general: Uptake of a labelled nucleoside into DNA is a usual measure of proliferation.)
Assay [5] has as its system LNCaP C4-2B. The assay is described as follows: Inhibition of androgen-resistant human LNCaP C4-2B cells at 1 uM incubated for 18 hrs by BrdU incorporation assay. Format: functional, cell-based.
For assay [6], the system named is PNT2. The assay is described as follows: Inhibition of R1881-induced DNA synthesis in human PNT2 cells at 10 uM incubated for 18 hrs by BrdU incorporation assay. The format is functional, cell-based.
In assay [7] the test system is PNT2. The assay is described as follows: Inhibition of DNA synthesis in human PNT2 cells at 0.01 to 10 uM incubated for 18 hrs by BrdU incorporation assay. Format: functional, cell-based. The conditions noted are these: dose 0.01-10 µM.
In assay [8] the test system is PC-3. The assay is described as follows: Inhibition of DNA synthesis in human PC-3 cells at 0.01 to 10 uM incubated for 18 hrs by BrdU incorporation assay. The conditions noted are these: dose 0.01-10 µM. Format: functional, cell-based.
Assay [9] concerns LNCaP. The assay is described as follows: Inhibition of R1881-induced cell spheroid size of human LNCaP cells at 1 uM with medium replacement for every 3 days incubated for 17 days by phase contrast microscopy. The format is functional, cell-based. The conditions noted are these: time 17.0 day.
Assay [10] deals with CWR22R. The assay is described as follows: Inhibition of R1881-induced cell spheroid size of human 22Rv1 cells at 1 uM with medium replacement for every 3 days incubated for 17 days by phase contrast microscopy. The format is functional, cell-based. The conditions noted are these: time 17.0 day.
Assay [11] relates to LNCaP. The assay is described as follows: Inhibition of R1881-induced DNA synthesis in human LNCaP cells at 0.01 to 10 uM incubated for 18 hrs by BrdU incorporation assay. Format: functional, cell-based. The conditions noted are these: dose 0.01-10 µM.
For assay [12], the system named is LNCaP C4-2B. The assay is described as follows: Inhibition of androgen-resistant human LNCaP C4-2B cells at 0.1 uM incubated for 18 hrs by BrdU incorporation assay. The format is functional, cell-based.
For assay [13], the system named is PNT2. The assay is described as follows: Inhibition of R1881-induced DNA synthesis in human PNT2 cells at 1 uM incubated for 18 hrs by BrdU incorporation assay. The format is functional, cell-based.

T1 sequence (Q8R455 whole entry): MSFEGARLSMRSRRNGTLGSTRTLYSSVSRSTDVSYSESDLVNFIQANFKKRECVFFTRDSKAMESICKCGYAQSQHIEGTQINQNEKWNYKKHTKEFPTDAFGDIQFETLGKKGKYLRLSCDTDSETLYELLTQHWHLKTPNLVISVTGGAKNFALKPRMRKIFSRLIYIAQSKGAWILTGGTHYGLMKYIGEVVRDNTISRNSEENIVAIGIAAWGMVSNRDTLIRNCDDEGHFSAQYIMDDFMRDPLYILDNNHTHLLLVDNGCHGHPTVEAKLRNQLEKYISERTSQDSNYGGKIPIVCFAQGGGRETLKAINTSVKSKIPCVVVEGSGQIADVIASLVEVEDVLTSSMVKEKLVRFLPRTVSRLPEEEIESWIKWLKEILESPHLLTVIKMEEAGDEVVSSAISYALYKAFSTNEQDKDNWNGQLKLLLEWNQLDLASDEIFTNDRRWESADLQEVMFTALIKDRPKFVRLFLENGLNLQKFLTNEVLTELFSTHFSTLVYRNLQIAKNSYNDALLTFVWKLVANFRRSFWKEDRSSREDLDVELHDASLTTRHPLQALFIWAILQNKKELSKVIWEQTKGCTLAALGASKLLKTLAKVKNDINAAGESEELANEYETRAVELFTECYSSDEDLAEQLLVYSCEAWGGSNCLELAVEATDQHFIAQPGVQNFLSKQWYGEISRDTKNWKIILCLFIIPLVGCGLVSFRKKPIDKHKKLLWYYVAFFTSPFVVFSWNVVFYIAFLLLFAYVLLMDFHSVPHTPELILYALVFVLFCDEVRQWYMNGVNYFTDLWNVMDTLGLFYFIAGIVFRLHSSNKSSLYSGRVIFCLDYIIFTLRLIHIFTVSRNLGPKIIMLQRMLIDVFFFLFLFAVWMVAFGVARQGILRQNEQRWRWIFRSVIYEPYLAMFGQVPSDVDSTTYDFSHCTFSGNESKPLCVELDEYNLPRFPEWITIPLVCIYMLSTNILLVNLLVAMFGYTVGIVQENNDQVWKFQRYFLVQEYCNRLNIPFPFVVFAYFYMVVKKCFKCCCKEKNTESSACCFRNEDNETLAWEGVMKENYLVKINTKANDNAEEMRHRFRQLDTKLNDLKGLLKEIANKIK
Transient receptor potential cation channel subfamily M member 8 (Rattus norvegicus), sequence (Q8R455 whole entry, looked up): as the sequence (Q8R455 whole entry) above

For the molecule `O=C1[C@@H]2Cc3cc(O)c(O)cc3[C@@H](c3ccc(F)cc3)N2C(=O)N1Cc1ccc(F)cc1`, in [1], the IC50 (commonly the concentration needed to halve the response being measured) stood at 1700 nM.
For the molecule `COC(=O)[C@H](Cc1ccc(O)cc1)N(Cc1ccccc1)Cc1ccccc1`, in assay [1], the IC50 was determined as 250 nM.
Still for that read-out and setting: as for `O=C1[C@@H]2Cc3cc(O)c(O)cc3[C@@H](c3ccc(F)cc3)N2C(=O)N1c1cccc(C(F)(F)F)c1`, the figure is 1200 nM; as for `COC(=O)[C@H](Cc1ccc(C)cc1)N(Cc1ccccc1)Cc1ccccc1`, 290 nM.
With `COC(=O)[C@H](Cc1ccc(O)c(O)c1)N(Cc1ccccc1)Cc1ccccc1`, the figures for the IC50 in [1] and in assay [2] were 490 nM and 100 nM, respectively. For the same molecule, the inhibition entry in [3] was “Dde”. The inhibition result in assay [4], in [5], in [6], in [7], in assay [8] and in [9] was “Active” each time. For the same molecule, the inhibition result in assay [10] was “Active”.
As for `COC(=O)[C@H](Cc1ccccc1)N(Cc1ccccc1)Cc1ccccc1`, the half-maximal inhibitory concentration (IC50) in [1] is 320 nM.
Turning to `O=C(NCc1ccc(F)cc1)[C@@H]1Cc2cc(O)c(O)cc2[C@@H](c2ccc(F)cc2)N1`, the IC50 in [1] worked out at 850 nM.
As for `COC(=O)[C@H](Cc1ccc([N+](=O)[O-])cc1)N(Cc1ccccc1)Cc1ccccc1`, the IC50 turned out to be 110 nM in assay [1] and 60 nM in assay [2]. Further, the inhibition result in assay [3] is “Dde”. The inhibition result in [11], in assay [4], in assay [5], in assay [12], in [6] and in assay [7] was “Active” throughout. Besides, the inhibition result in assay [8], in [9] and in [10] was “Active” in each case.
Take `O=C(NCc1ccc(F)cc1)[C@@H]1Cc2cc(O)c(O)cc2[C@H](c2ccc(F)cc2)N1`: the IC50 in assay [1] came to 17500 nM.
As for `COC(=O)[C@H](Cc1ccc(N)cc1)N(Cc1ccccc1)Cc1ccccc1`, the half-maximal inhibitory concentration (IC50) in assay [1] was 210 nM; in assay [2], 110 nM. In assay [3], the inhibition result is “Dde”. The inhibition result in assay [11], in [4], in [5], in assay [6], in [13] and in [7] was “Active” throughout. The inhibition entry in [8], in assay [9] and in assay [10] was “Active” throughout.
Take `O=C1[C@H]2Cc3cc(O)c(O)cc3[C@H](c3ccc(F)cc3)N2C(=O)N1Cc1ccc(F)cc1`: the IC50 in [1] was found to be 2200 nM.
The same measure, in the same setting: as for `COC(=O)[C@H](Cc1ccc(Cl)cc1)N(Cc1ccccc1)Cc1ccccc1`, the figure is 280 nM; as for `O=C1[C@H]2Cc3cc(O)c(O)cc3[C@H](c3ccc(F)cc3)N2C(=O)N1c1cccc(C(F)(F)F)c1`, 2100 nM.

The values are drawn from ChEMBL document CHEMBL5113414, “New TRPM8 blockers exert anticancer activity over castration-resistant prostate cancer models” (Eur J Med Chem, 2022).
